Reference: paper PMC10094593, “Chemical Space Virtual Screening against Hard-to-Drug RNA Methyltransferases DNMT2 and NSUN6” (International Journal of Molecular Sciences, 2023)
pKd: −log10 of the molar value. Read-outs that look alike come from different tables or passages of the source.

Columns and labels:
DNMT2 = target: T1, DNMT2 (Homo sapiens, UniProt O14717); experiment: Microscale thermophoresis (MST) binding assay, DNMT2; details: for MST pre-screening: DNMT2, ligand concentration 33, 100, 300 µM
T1 construct: made in house; host or cells: E. coli Rosetta2
T1 sequence (O14717 1-391): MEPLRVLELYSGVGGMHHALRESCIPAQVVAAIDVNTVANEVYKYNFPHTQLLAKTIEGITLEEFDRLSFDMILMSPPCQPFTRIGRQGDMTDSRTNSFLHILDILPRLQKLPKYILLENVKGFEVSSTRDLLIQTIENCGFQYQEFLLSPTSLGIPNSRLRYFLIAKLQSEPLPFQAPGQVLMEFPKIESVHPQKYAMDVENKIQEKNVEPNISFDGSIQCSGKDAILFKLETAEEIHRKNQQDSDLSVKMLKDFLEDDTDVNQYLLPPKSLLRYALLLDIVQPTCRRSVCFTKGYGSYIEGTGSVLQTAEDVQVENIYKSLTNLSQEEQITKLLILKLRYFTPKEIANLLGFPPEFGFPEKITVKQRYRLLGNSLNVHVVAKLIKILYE
Procedure: (§1) Since the constructs of DNMT2 and NSUN6 contain hexa-histidine tags, proteins were labeled using a Monolith His-Tag Labeling Kit RED-Tris-NTA 2nd generation according to the manufacturer’s instructions. This labeling strategy was chosen since it should prevent any interference with the actual binding site of the proteins. Labeled protein was diluted to a concentration of 20 nM into MST buffer (50 mM Hepes, pH 7.5, 150 mM NaCl, 10 mM MgCl2, 1 mM DTT, 0.05% polysorbate-20, 0.1% PEG-8000). All compounds were prepared as stocks dissolved in DMSO to a concentration of 50 mM. […] All measurements were performed on a Monolith Pico instrument (NanoTemper Technologies, Muenchen, Germany) with red light. To induce thermophoresis, medium MST power was selected for DNMT2 and high MST power for NSUN6. All experiments were performed in quadruplicates. […] Obtained dilutions were then mixed 1:1 with labeled protein (20 nM) and incubated for 5 min at room temperature prior to measurement. Experiments were performed in duplicates. All data received were analyzed using the MO. Affinity Analysis software version 2.3 (NanoTemper Technologies, Muenchen, Germany).

NSUN6 = target: T2, NSUN6 (Homo sapiens, UniProt Q8TEA1); experiment: Microscale thermophoresis (MST) binding assay, NSUN6; details: for pKd: MST dose-response curve; for MST pre-screening: ligand concentration 33, 100, 300 µM
T2 construct: host or cells: E. coli Rosetta2
T2 sequence (Q8TEA1 1-469): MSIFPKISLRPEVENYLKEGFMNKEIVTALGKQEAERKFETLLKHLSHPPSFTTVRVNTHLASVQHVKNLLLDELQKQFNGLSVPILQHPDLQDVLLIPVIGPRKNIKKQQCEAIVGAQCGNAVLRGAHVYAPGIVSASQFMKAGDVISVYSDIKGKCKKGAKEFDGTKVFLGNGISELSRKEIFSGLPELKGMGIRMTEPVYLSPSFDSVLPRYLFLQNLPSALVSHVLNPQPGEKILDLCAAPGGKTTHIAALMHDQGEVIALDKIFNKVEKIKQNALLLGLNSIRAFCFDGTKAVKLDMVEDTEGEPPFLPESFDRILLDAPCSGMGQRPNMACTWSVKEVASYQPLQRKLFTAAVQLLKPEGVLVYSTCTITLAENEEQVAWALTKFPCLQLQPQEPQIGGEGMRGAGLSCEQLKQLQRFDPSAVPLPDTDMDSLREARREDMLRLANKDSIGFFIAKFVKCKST
Procedure: as §1

[1] = NSUN6, ≥ = lower limit, upper plateau not completely reached, read-out: KD,app

Row | Compound | pKd (NSUN6; [1]) | MST pre-screening (NSUN6; NSUN6) | MST pre-screening (DNMT2) | further results
1 | COc1ccc(C(=O)Nc2cccc(CN[C@H](CN)CO)c2)cc1 [Compound 2.8] | 4.38 | concentration-dependent MST-shift (binding) | – | MST result DNMT2 ('off-target'/selectivity) (DNMT2; no MST shift at ligand concentration of up to 300 µM): [drawing 33] No binding; selectivity for NSUN6 over DNMT2 (DNMT2; selective = no MST shift for the other enzyme up to 300 µM): selectivity
2 | Cc1n[nH]c(C)c1NC(=O)CN1CCN(C(=O)c2ccc(C(N)=O)s2)CC1 [Compound 1.2] | – | – | no concentration-dependent MST-shift (no binding) | –
3 | Nc1ncnc2cc(C(=O)NCC(=O)Nc3ccc4c(c3)OCCO4)ccc12 [Compound 1.14] | ≤ 3.94 | – | – | –
4 | O=C(NCCN/C(O)=C1\N=CC=CC1=O)Nc1cccc2c1CNC2=O [Compound 1.4] | 4.92 | – | – | –
5 | Cn1cnc([C@@H]2CNC[C@H]2C(=O)N2CCC[C@@H](CNC(=O)[C@H]3CCCN3)C2)c1 (racemic) [Compound 2.4] | 4.79 | concentration-dependent MST-shift (binding) | – | –
6 | C[C@@H](NC(=O)Nc1ccc(C(N)=O)c(F)c1)c1cccc(N2CCOC2=O)c1 [Compound 1.9] | – | – | no concentration-dependent MST-shift (no binding) | –
7 | CN1CCN(CC[C@@H](N)C(=O)Nc2ccc(-n3ccc(O)n3)c(F)c2)CC1 (racemic) [Compound 2.1] | ≤ 3.43 | concentration-dependent MST-shift (binding) | – | –
8 | CNC(=O)c1cccc(CN[C@H]2CCCN(C(=O)c3coc(C(N)=O)c3)C2)c1 [Compound 1.3] | – | – | no concentration-dependent MST-shift (no binding) | –
9 | CN1CCC[C@@H]1CCC(=O)Nc1c[nH]nc1C(=O)NCC(N)=O [Compound 2.6] | – | no concentration-dependent MST-shift (no binding) | – | –
10 | O=C(NCc1cccc2ncccc12)Nc1ccc(C[C@H]2NC(=O)NC2=O)cc1 [Compound 1.12] | – | – | no concentration-dependent MST-shift (no binding) | –
11 | Cc1ccc(F)c(-n2cc(O)c(C(=O)NNc3cc(O)nc4ncccc34)n2)c1 [Compound 1.16] | – | – | no concentration-dependent MST-shift (no binding) | –
12 | N[C@H](CCS(N)(=O)=O)C(=O)Nc1ccc(C2CCNCC2)cc1 [Compound 2.3] | – | no concentration-dependent MST-shift (no binding) | – | –
13 | O=C([C@@H]1NC[C@@H](O)[C@H]1O)N1CCN([C@@H]2CCN(c3ccccc3)C2=O)CC1 [Compound 2.11] | – | no concentration-dependent MST-shift (no binding) | – | –
14 | Nc1ncnc2c1ncn2[C@@H]1O[C@H](CSCC[C@H](N)C(=O)O)[C@@H](O)[C@H]1O [SAH, S-adenosyl-L-homocysteine, reference compound] | – | – | – | pKd (DNMT2; MST dose-response curve, DNMT2, reference ligand): 4.93; pKd (NSUN6; NSUN6, reference ligand, read-out: KD): 5.04
15 | CNC(=O)c1cccc(CN2CCC[C@H](NC(=O)c3coc(C(N)=O)c3)C2)c1 [Compound 1.5] | – | – | no concentration-dependent MST-shift (no binding) | –
